Patent publication US20250163104A1, “MACROCYCLIC IMMUNOMODULATORS” (priority 2021, published 2025)
Where a SMILES comes first, the peptide text is derived from it. Bridges are numbered along the chain shown (N, C = ends). [ ]: non-standard residue; d: D form. The star is where a group is joined. Phe(4-COOH) = N[C@@H](Cc1ccc(C(=O)O)cc1)C(=O)O; Bip = N[C@@H](Cc1ccc(-c2ccccc2)cc1)C(=O)O; Phe(3-Me) = Cc1cccc(C[C@H](N)C(=O)O)c1; 4Pal = N[C@@H](Cc1ccncc1)C(=O)O; Cha = N[C@@H](CC1CCCCC1)C(=O)O; Cit = NC(=O)NCCC[C@H](N)C(=O)O; Carboxymethyl = O=C(O)C*; Nle = CCCC[C@H](N)C(=O)O; Orn = NCCC[C@H](N)C(=O)O; Dab = NCC[C@H](N)C(=O)O; Dap = NC[C@H](N)C(=O)O

The molecules below were run against T1, human PD-1 / PD-L1-Ig binding on Jurkat cell line over-expressing human PD-1 (Jurkat-PD-1) (Homo sapiens, UniProt Q15116) (assay: Jurkat-PD-1 Cell Binding High-Content Screening Assay (CBA)). Settings: Jurkat-PD-1 cells, PE-labeled PD-L1-Ig 20 nM final; read-out: Jurkat HPD1_PDL1 IC50.
T1 construct: expressed in transfected cells; host or cells: Jurkat
Type: cell-based
How it was run: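 Read-out: high-content imaging of PE-tagged PD-L1-Ig bound to Jurkat cells overexpressing human PD-1, after fixation with 4% paraformaldehyde and Hoechst 33342 nuclear staining. Ligand was used at 20 nM final for 1 hour, after a 2 h compound exposure at 37° C in serum-containing DMEM.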

T1 sequence (Q15116 25-288): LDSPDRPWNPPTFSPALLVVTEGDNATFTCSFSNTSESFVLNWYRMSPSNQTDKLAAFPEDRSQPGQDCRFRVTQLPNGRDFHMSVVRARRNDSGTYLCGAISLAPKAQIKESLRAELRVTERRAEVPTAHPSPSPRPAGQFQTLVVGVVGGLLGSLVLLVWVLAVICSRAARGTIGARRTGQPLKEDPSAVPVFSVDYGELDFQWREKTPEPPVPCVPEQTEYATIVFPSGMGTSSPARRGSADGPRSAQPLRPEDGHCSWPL

Row | IC50 | SMILES
1 | 42.6 nM | CC(C)C[C@@H]1NC(=O)[C@H](Cc2c[nH]c3ccccc23)NC(=O)[C@H](CC(=O)O)NC(=O)[C@H](Cc2ccncc2)NC(=O)[C@H](CN)NC(=O)CSC[C@@H](C(=O)NCC(N)=O)NC(=O)[C@H](CO)NC(=O)[C@H](C(C)C)NC(=O)[C@H](CC(C)C)NC(=O)[C@H](CC(N)=O)NC(=O)[C@@H](CC(C)C)NC(=O)[C@H](CCCN)NC(=O)[C@H](C(C)C)NC(=O)[C@H](Cc2ccc(-c3ccccc3)cc2)NC1=O [Compound 1285] ({CH2CO}-[Dap][4Pal]DWL[Bip]V[Orn][dL]NLVSCG-NH2; thioether N-14)
2 | 50.3 nM | CC(C)C[C@@H]1NC(=O)[C@H](Cc2c[nH]c3ccccc23)NC(=O)[C@H](CC(=O)O)NC(=O)[C@H](Cc2ccncc2)NC(=O)[C@H](Cc2ccc(OCC(=O)O)cc2)NC(=O)CSC[C@@H](C(=O)NCC(N)=O)NC(=O)[C@H](CO)NC(=O)[C@H](C(C)C)NC(=O)[C@H](CC(C)C)NC(=O)[C@H](CC(N)=O)NC(=O)[C@@H](CC(C)C)NC(=O)[C@H](CCCN)NC(=O)[C@H](C(C)C)NC(=O)[C@H](Cc2ccc(-c3ccccc3)cc2)NC1=O [Compound 1286] ({CH2CO}-Y(Carboxymethyl)[4Pal]DWL[Bip]V[Orn][dL]NLVSCG-NH2; thioether N-14)
3 | 38.9 nM | CC(C)C[C@@H]1NC(=O)[C@H](CC(N)=O)NC(=O)[C@@H](CC(C)C)NC(=O)[C@H](CN)NC(=O)[C@H](C(C)C)NC(=O)[C@H](Cc2ccc(-c3ccccc3)cc2)NC(=O)[C@H](C(C)C)NC(=O)[C@H](Cc2c[nH]c3ccccc23)NC(=O)[C@H](CC(=O)O)NC(=O)[C@H](Cc2ccc(C(=O)O)cc2)NC(=O)[C@H](Cc2ccc(OCC(=O)O)cc2)NC(=O)CSC[C@@H](C(=O)NCC(N)=O)NC(=O)[C@H](CO)NC(=O)[C@H](C(C)C)NC1=O [Compound 1288] ({CH2CO}-Y(Carboxymethyl)[Phe(4-COOH)]DWV[Bip]V[Dap][dL]NLVSCG-NH2; thioether N-14)
4 | 10.6 nM | CC(C)C[C@@H]1NC(=O)[C@H](CC(N)=O)NC(=O)[C@@H](CC(C)C)NC(=O)[C@H](CN)NC(=O)[C@H](C(C)C)NC(=O)[C@H](Cc2ccc(-c3ccccc3)cc2)NC(=O)[C@H](C(C)C)NC(=O)[C@H](Cc2c[nH]c3ccccc23)NC(=O)[C@H](CC(=O)O)NC(=O)[C@H](Cc2ccncc2)NC(=O)[C@H](CN)NC(=O)CSC[C@@H](C(=O)NCC(N)=O)NC(=O)[C@H](CO)NC(=O)[C@H](C(C)C)NC1=O [Compound 1293] ({CH2CO}-[Dap][4Pal]DWV[Bip]V[Dap][dL]NLVSCG-NH2; thioether N-14)
5 | 9.4 nM | Cc1cccc(C[C@@H]2NC(=O)[C@H](CC(=O)O)NC(=O)[C@H](Cc3ccc(OCC(=O)O)cc3)NC(=O)[C@H](CN)NC(=O)CSC[C@@H](C(=O)N[C@@H](C)C(=O)N[C@@H](CCC(=O)O)C(N)=O)NC(=O)[C@H]([C@@H](C)O)NC(=O)[C@H](C(C)C)NC(=O)[C@H](CC3CCCCC3)NC(=O)[C@H](CCN)NC(=O)[C@@H](CC(C)C)NC(=O)[C@H](CCCN)NC(=O)[C@H](CCCNC(N)=O)NC(=O)[C@H](Cc3ccc(-c4ccccc4)cc3)NC(=O)[C@H](C(C)C)NC2=O)c1 [Compound 1297] ({CH2CO}-[Dap]Y(Carboxymethyl)D[Phe(3-Me)]V[Bip][Cit][Orn][dL][Dab][Cha]VTCAE-NH2; thioether N-14)
6 | 5 nM | Cc1cccc(C[C@@H]2NC(=O)[C@H](CC(=O)O)NC(=O)[C@H](Cc3ccc(OCC(=O)O)cc3)NC(=O)[C@H](CN)NC(=O)CSC[C@@H](C(=O)N[C@@H](C)C(=O)O)NC(=O)[C@H]([C@@H](C)O)NC(=O)[C@H](C(C)C)NC(=O)[C@H](CC3CCCCC3)NC(=O)[C@H](CCN)NC(=O)[C@@H](CC(C)C)NC(=O)[C@H](CCCN)NC(=O)[C@H](CCCNC(N)=O)NC(=O)[C@H](Cc3ccc(-c4ccccc4)cc3)NC(=O)[C@H](C(C)C)NC2=O)c1 [Compound 1300]
7 | 5.9 nM | Cc1cccc(C[C@@H]2NC(=O)[C@H](CC(=O)O)NC(=O)[C@H](Cc3ccc(OCC(=O)O)cc3)NC(=O)[C@H](CN)NC(=O)CSC[C@@H](C(=O)N[C@@H](CCC(=O)O)C(=O)O)NC(=O)[C@H]([C@@H](C)O)NC(=O)[C@H](C(C)C)NC(=O)[C@H](CC3CCCCC3)NC(=O)[C@H](CCN)NC(=O)[C@@H](CC(C)C)NC(=O)[C@H](CCCN)NC(=O)[C@H](CCCNC(N)=O)NC(=O)[C@H](Cc3ccc(-c4ccccc4)cc3)NC(=O)[C@H](C(C)C)NC2=O)c1 [Compound 1301] ({CH2CO}-[Dap]Y(Carboxymethyl)D[Phe(3-Me)]V[Bip][Cit][Orn][dL][Dab][Cha]VTCE-OH; thioether N-14)
8 | 6.1 nM | Cc1cccc(C[C@@H]2NC(=O)[C@H](CC(=O)O)NC(=O)[C@H](Cc3ccc(OCC(=O)O)cc3)NC(=O)[C@H](CN)NC(=O)CSC[C@@H](C(=O)N[C@@H](C)C(N)=O)NC(=O)[C@H]([C@@H](C)O)NC(=O)[C@H](C(C)C)NC(=O)[C@H](CC3CCCCC3)NC(=O)[C@H](CCN)NC(=O)[C@@H](CC(C)C)NC(=O)[C@H](CCCN)NC(=O)[C@H](CCC(=O)O)NC(=O)[C@H](Cc3ccc(-c4ccccc4)cc3)NC(=O)[C@H](C(C)C)NC2=O)c1 [Compound 1302]

Continued, molecule first:

Row | SMILES | IC50
9 | CC(C)C[C@@H]1NC(=O)[C@H](CC(N)=O)NC(=O)[C@@H](CC(C)C)NC(=O)[C@H](CN)NC(=O)[C@H](C(C)C)NC(=O)[C@H](Cc2ccc(-c3ccccc3)cc2)NC(=O)[C@H](C(C)C)NC(=O)[C@H](Cc2c[nH]c3ccccc23)NC(=O)[C@H](CC(=O)O)NC(=O)[C@H](Cc2ccc(OCC(=O)O)cc2)NC(=O)[C@H](CN)NC(=O)CSC[C@@H](C(=O)NCC(N)=O)NC(=O)[C@H](CO)NC(=O)[C@H](C(C)C)NC1=O [Compound 1289] ({CH2CO}-[Dap]Y(Carboxymethyl)DWV[Bip]V[Dap][dL]NLVSCG-NH2; thioether N-14) | 11 nM
10 | CC(C)C[C@@H]1NC(=O)[C@H](CC(N)=O)NC(=O)[C@@H](CC(C)C)NC(=O)[C@H](CN)NC(=O)[C@H](C(C)C)NC(=O)[C@H](Cc2ccc(-c3ccccc3)cc2)NC(=O)[C@H](C(C)C)NC(=O)[C@H](Cc2c[nH]c3ccccc23)NC(=O)[C@H](CC(=O)O)NC(=O)[C@H](Cc2ccncc2)NC(=O)[C@H](Cc2ccc(OCC(=O)O)cc2)NC(=O)CSC[C@@H](C(=O)NCC(N)=O)NC(=O)[C@H](CO)NC(=O)[C@H](C(C)C)NC1=O [Compound 1290] ({CH2CO}-Y(Carboxymethyl)[4Pal]DWV[Bip]V[Dap][dL]NLVSCG-NH2; thioether N-14) | 50.6 nM
11 | CC(C)C[C@@H]1NC(=O)[C@H](Cc2c[nH]c3ccccc23)NC(=O)[C@H](CC(=O)O)NC(=O)[C@H](Cc2ccc(OCC(=O)O)cc2)NC(=O)[C@H](Cc2ccc(OCC(=O)O)cc2)NC(=O)CSC[C@@H](C(=O)NCC(N)=O)NC(=O)[C@H](CO)NC(=O)[C@H](C(C)C)NC(=O)[C@H](CC(C)C)NC(=O)[C@H](CC(N)=O)NC(=O)[C@@H](CC(C)C)NC(=O)[C@H](CN)NC(=O)[C@H](C(C)C)NC(=O)[C@H](Cc2ccc(-c3ccccc3)cc2)NC1=O [Compound 1291] ({CH2CO}-Y(Carboxymethyl)Y(Carboxymethyl)DWL[Bip]V[Dap][dL]NLVSCG-NH2; thioether N-14) | 12.1 nM
12 | CC(C)C[C@@H]1NC(=O)[C@H](CC(N)=O)NC(=O)[C@@H](CC(C)C)NC(=O)[C@H](CN)NC(=O)[C@H](C(C)C)NC(=O)[C@H](Cc2ccc(-c3ccccc3)cc2)NC(=O)[C@H](C(C)C)NC(=O)[C@H](Cc2c[nH]c3ccccc23)NC(=O)[C@H](CC(=O)O)NC(=O)[C@H](Cc2ccc(OCC(=O)O)cc2)NC(=O)[C@H](Cc2ccc(OCC(=O)O)cc2)NC(=O)CSC[C@@H](C(=O)NCC(N)=O)NC(=O)[C@H](CO)NC(=O)[C@H](C(C)C)NC1=O [Compound 1292] ({CH2CO}-Y(Carboxymethyl)Y(Carboxymethyl)DWV[Bip]V[Dap][dL]NLVSCG-NH2; thioether N-14) | 7.2 nM
13 | CCCC[C@@H]1NC(=O)[C@H](CCN)NC(=O)[C@@H](CC(C)C)NC(=O)[C@H](CCCN)NC(=O)[C@H](CCCNC(N)=O)NC(=O)[C@H](Cc2ccc(-c3ccccc3)cc2)NC(=O)[C@H](CC(C)C)NC(=O)[C@H](Cc2cccc(C)c2)NC(=O)[C@H](CC(=O)O)NC(=O)[C@H](Cc2ccc(OCC(=O)O)cc2)NC(=O)[C@H](CN)NC(=O)CSC[C@@H](C(=O)N[C@@H](C)C(N)=O)NC(=O)[C@H]([C@@H](C)O)NC(=O)[C@H](C(C)C)NC1=O [Compound 1295] ({CH2CO}-[Dap]Y(Carboxymethyl)D[Phe(3-Me)]L[Bip][Cit][Orn][dL][Dab][Nle]VTCA-NH2; thioether N-14) | 9.8 nM
14 | Cc1cccc(C[C@@H]2NC(=O)[C@H](CC(=O)O)NC(=O)[C@H](Cc3ccc(OCC(=O)O)cc3)NC(=O)[C@H](CN)NC(=O)CSC[C@@H](C(=O)N[C@@H](C)C(=O)N[C@@H](CCC(=O)O)C(N)=O)NC(=O)[C@H]([C@@H](C)O)NC(=O)[C@H](C(C)C)NC(=O)[C@H](CC3CCCCC3)NC(=O)[C@H](CCN)NC(=O)[C@@H](CC(C)C)NC(=O)[C@H](CCCN)NC(=O)[C@H](CCCNC(N)=O)NC(=O)[C@H](Cc3ccc(-c4ccccc4)cc3)NC(=O)[C@H](C(C)C)NC2=O)c1 [Compound 1296] ({CH2CO}-[Dap]Y(Carboxymethyl)D[Phe(3-Me)]V[Bip][Cit][Orn][dL][Dab][Cha]VTCAE-NH2; thioether N-14) | 13.5 nM
15 | Cc1cccc(C[C@@H]2NC(=O)[C@H](CC(=O)O)NC(=O)[C@H](Cc3ccc(OCC(=O)O)cc3)NC(=O)[C@H](CN)NC(=O)CSC[C@@H](C(=O)N[C@@H](C)C(N)=O)NC(=O)[C@H]([C@@H](C)O)NC(=O)[C@H](C(C)C)NC(=O)[C@H](CC3CCCCC3)NC(=O)[C@H](CCN)NC(=O)[C@@H](CC(C)C)NC(=O)[C@H](CCCN)NC(=O)[C@H](C(C)C)NC(=O)[C@H](Cc3ccc(-c4ccccc4)cc3)NC(=O)[C@H](CC(C)C)NC2=O)c1 [Compound 1303] ({CH2CO}-[Dap]Y(Carboxymethyl)D[Phe(3-Me)]L[Bip]V[Orn][dL][Dab][Cha]VTCA-NH2; thioether N-14) | 4.8 nM
